Data taken from patent US20140296354A1, “SYNTHESIS OF PEPTOID-BASED SMALL MOLECULAR GELATORS FROM MULTIPLE COMPONENT REACTIONS” (OLD DOMINION UNIVERSITY RESEARCH FOUNDATION, priority 2013, published 2014).

Columns and labels:
Gel melting temperatures = format: physicochemical; details: gel in DMSO:H2O (1:2) at its minimum gelation concentration
Method: Melting points were measured for compounds that were gelators in the DMSO:H2O (1:2) solvent system. In general, a compound was dissolved in heated solvent in a small vial at its minimum gelation concentration and transferred into a tube (e.g., an NMR tube) while the mixture was still warm. The tube was sonicated and cooled until a stable gel formed. The tube was immersed in an oil bath and the temperature of the solid-to-liquid phase transition was monitored using a thermometer as the oil bath temperature was changed. Gel melting temperatures are presented in […]

[1] = Gelation test in solvents at room temperature; format: physicochemical; set-up: key to Gelation test result: I, insoluble; P, precipitating; S, soluble at ~20 mg/mL; G, gel at room temperature; number is minimum gelation concentration; details: for Gelation test result / minimum gelation concentration: room temperature; for MGC in DMSO:H2O (1:2): Table 2
Method: Gelation tests were performed by adding incremental amounts of compounds to a solvent or solvent system at room temperature and observing the results (i.e., gel formation, solubility of compounds, insolubility of compounds, or formation of a precipitate). […] The term “precipation” means that the compound dissolves upon heating and sonicating, however, it crashes out of solution when the heat is removed.
After the compounds were synthesized, they were screened for gelation properties. […] For the compounds with new chiral centers, they formed gels in aqueous environment preferentially.

[2] = Optical micrographs of gels (morphology); format: physicochemical; details: for morphology of the gel: optical micrographs, FIG. 3
Excerpt: Solvent for 1(a-d) is DMSO:H2O (1:2); solvent for 1(e-f) is EtOH:H2O (1:2).
The EtOH/H2O gel has shown more uniform fibrous structures with an average diameter of 0.5 μm and over 300 μm in length (FIG. 3e, f).

| SMILES | melting point | T1, temperature at which gel begins to melt (Gel melting temperatures) | T2, temperature at which gel is approximately half melted (Gel melting temperatures) | T3, temperature at which gel is fully melted (Gel melting temperatures) | Gelation test result ([1]; DMSO:H2O (1:1)) | minimum gelation concentration ([1]; DMSO:H2O (1:1)) | Gelation test result ([1]; DMSO:H2O (1:2)) | minimum gelation concentration ([1]; DMSO:H2O (1:2)) | MGC in DMSO:H2O (1:2) ([1]; DMSO:H2O (1:2)) | Gelation test result ([1]; EtOH) | Gelation test result ([1]; EtOH:H2O (1:1)) | Gelation test result ([1]; EtOH:H2O (1:2)) | minimum gelation concentration ([1]; EtOH:H2O (1:2)) | Gelation test result ([1]; H2O) | Gelation test result ([1]; Hexane) | minimum gelation concentration ([1]; EtOH:H2O (1:1)) | morphology of the gel [2] | gelation efficiency (in words) [1] | minimum gelation concentration ([1]; EtOH) | also measured |
| --- | --- | --- | --- | --- | --- | --- | --- | --- | --- | --- | --- | --- | --- | --- | --- | --- | --- | --- | --- | --- |
| C#CCCC(=O)N(CC(=O)NC1CCCCC1)Cc1ccccc1 [Compound 15, N-benzyl-N-(2-(cyclohexylamino)-2-oxoethyl)pent-4-ynamide] | 138 to 140 °C | 95 °C | 100 °C | 110 °C | G | 20.0 mg/mL | G | 20.0 mg/mL | 20.0 mg/mL | P | P | G | 20.0 mg/mL | S (S, soluble at ~20 mg/mL) | P^(b) | – | – | – | – | – |
| O=C(CN(Cc1ccccc1)C(=O)c1ccc(Br)cc1)NC1CCCCC1 [Compound 17, N-benzyl-4-bromo-N-(2-(cyclohexylamino)-2-oxoethyl)benzamide] | 168 to 170 °C | 78 °C | 80 °C | 90 °C | G | 10.0 mg/mL | G | 5.0 mg/mL | 5.0 mg/mL | S (S, soluble at ~20 mg/mL) | G | P | – | P | I | 20.0 mg/mL | – | – | – | – |
| O=C(CN(Cc1ccccc1)C(=O)c1ccc([N+](=O)[O-])cc1)NC1CCCCC1 [Compound 18, N-benzyl-N-(2-(cyclohexylamino)-2-oxoethyl)-4-nitrobenzamide] | 190 to 192 °C | 91 °C | 95 °C | 110 °C | G | 20.0 mg/mL | G | 10.0 mg/mL | 10.0 mg/mL | P | G | P | – | P | I | 20.0 mg/mL | rod or sheet like feature | not a very efficient gelator | – | concentration at which gel formed ([1]; DMSO aqueous mixture): 2 wt % |
| COc1ccc(CN(CC(=O)NC2CCCCC2)C(=O)c2ccc(Br)cc2)cc1 [Compound 20, N-(4-methoxybenzyl)-4-bromo-N-(2-(cyclohexylamino)-2-oxoethyl)benzamide] | 174 to 176 °C | 91 °C | 110 °C | 120 °C | G | 5.0 mg/mL | G | 6.6 mg/mL | 6.6 mg/mL | P | G | P | – | P | P | 10.0 mg/mL | – | – | – | – |
| CCOC(=O)CNC(=O)CN(Cc1ccc(OC)cc1)C(=O)c1ccc(Br)cc1 [Compound 21, Ethyl 2-(2-(N-(4-methoxybenzyl)-4-bromobenzamido)acetamido)acetate] | 123 to 125 °C | 70 °C | 75 °C | 81 °C | G | 2.5 mg/mL | G | 2.0 mg/mL | 2.0 mg/mL | G | G | G | 2.8 mg/mL | S (S, soluble at ~20 mg/mL) | I | 5.0 mg/mL | very long and uniform fibrous assemblies | most efficient gelator identified in this study | 20.0 mg/mL | average diameter of fibrous structures ([2]; EtOH/H2O gel): 0.5 μm; length of fibrous structures ([2]; EtOH/H2O gel): over 300 μm |
| CCOC(=O)CNC(=O)CN(Cc1ccc(OC)cc1)C(=O)c1ccccc1 [Compound 23, Ethyl 2-(2-(N-(4-methoxybenzyl)benzamido)acetamido)acetate] | 94 to 96 °C | 50 °C | 52 °C | 58 °C | P | – | G | 20.0 mg/mL | 20.0 mg/mL | S (S, soluble at ~20 mg/mL) | P | P | – | S (S, soluble at ~20 mg/mL) | I | – | – | – | – | – |
| COC1OC2COC(c3ccccc3)OC2C(O)C1N(CC(=O)NC1CCCCC1)C(=O)c1ccccc1 (stereo not drawn) [Compound 24, N-(2-(cyclohexylamino)-2-oxoethyl)-N-(8-hydroxy-6-methoxy-2-phenyl-hexahydropyrano[3,2-d][1,3]dioxin-7-yl)benzamide] | 261 to 263 °C | – | – | – | P | – | P | – | – | G | P | G | 20.0 mg/mL | I | P | – | – | – | 20.0 mg/mL | – |
| COC1OC2COC(c3ccccc3)OC2C(O)C1N(CC(=O)NC1CCCCC1)C(=O)c1ccc(Br)cc1 (stereo not drawn) [Compound 25, 4-Bromo-N-(2-(cyclohexylamino)-2-oxoethyl)-N-(8-hydroxy-6-methoxy-2-phenyl-hexahydropyrano[3,2-d][1,3]dioxin-7-yl)benzamide] | 291 to 293 °C | – | – | – | G | 20.0 mg/mL | P | – | – | G | G | G | 20.0 mg/mL | I | P | 20.0 mg/mL | – | – | 20.0 mg/mL | – |
| CCOC(=O)CNC(=O)CN(C(=O)c1ccc(Br)cc1)C1C(OC)OC2COC(c3ccccc3)OC2C1O (stereo not drawn) [Compound 26, Ethyl-2-(2-(4-bromo-N-(8-hydroxy-6-methoxy-2-phenyl-hexahydropyrano[3,2-d][1,3]dioxin-7-yl)benzamido)acetamido)acetate] | 207 to 209 °C | 110 °C | 118 °C | 128 °C | G | 10.0 mg/mL | G | 6.6 mg/mL | 6.6 mg/mL | I | G | G | 10.0 mg/mL | P | I | 20.0 mg/mL | thinner fibrous assembly | more efficient gelator | – | concentration at which gel formed ([1]; DMSO/H2O (1:2)): 0.66 wt % |
